Laboratory results taken from patent US10543212B2, “Substituted amines for treating cardiac diseases” (Cardurion Pharmaceuticals, LLC, priority 2017, dated 2020).

Molecular target: T1, Full-length, GST-tagged, human CaMKIIδ (Homo sapiens, UniProt Q13557)
T1 construct: Full-Length, Glutathione-S-Transferase(GST)-Tagged, Human CaMKIIδ was purchased from Carna Biosciences; purchased Carna Biosciences 02-111
Experiment: CaMKIIδ binding assay (TR-FRET with BODIPY-labeled probe ligand)
Method: In vitro CaMKIIδ inhibitory activity was evaluated by a binding assay.
Full-Length, Glutathione-S-Transferase(GST)-Tagged, Human CaMKIIδ was purchased from Carna Biosciences (product #02-111, Kobe, Japan). Full-length bovine calmodulin was purchased from Wako Pure Chemical Industries (Osaka, Japan). Terbium-labeled anti-GST antibody (Tb-anti-GST Ab) was purchased from Life Technologies (Carlsbad, Calif., USA). Boron-dipyrromethene (BODIPY)-labeled probe ligand was synthesized as described below.
Time-Resolved Fluorescence Resonance Energy Transfer (TR-FRET) Assay
All assays were conducted using 384-well, white, flat-bottomed plates (product #784075, Greiner Bio-One, Frickenhausen, Germany) in kinase assay buffer, which consists of 50 mM HEPES pH 7.6, 10 mM MgCl2, 1 mM EGTA, 0.01% Brig-35, 0.1 mM DTT). The fluorescent probe ligand was added at a final concentration of 300 nM to solutions containing 0.21 nM Tb-anti-GST Ab, 1 mM CaCl2), 10 μg/mL calmodulin, and 0.5 nM GST-tagged CaMKIIδ. After shaded incubation of the protein-probe mixture on ice for 30 min, the premix was dispensed in the assay plate including test inhibitors with 4 fold dilution series of eight concentrations. After 1 hr incubation at room temperature, TR-FRET signals were measured in duplicate using an EnVision microplate reader (Perkin Elmer, Waltham, Mass., USA). The solution in each well was excited with a laser (λ=340 nm) reflected by a dichroic mirror (D400/D505 (Perkin Elmer) through an excitation filter (UV (TRF) 340, (Perkin Elmer)), and fluorescence from Tb and BODIPY were detected through two emission filters (CFP 495 (Perkin Elmer) for Tb, Emission 520 (Perkin Elmer) for BODIPY).
The percentage of inhibition of test compounds was calculated according to equation (1) Inhibition (%)=100×([…]−T)/(μH−μL) (1)
Where T is the value of the wells containing test compounds and μH and μL are the mean values of the 0% and 100% inhibition control wells, respectively. The values of the 0 and 100% controls were the signals obtained in the absence and presence of 3 μM its parent compound, respectively. The half maximal inhibitory concentration (IC50) of test compounds was calculated by fitting the data with the logistic equation using XLfit (IDBS, Guildford, UK). The IC50 was classified according to the following activity ranks.

[1] = CaMKIIδ binding assay, activity class per Table 2
[2] = Table 2, CaMKIIδ binding assay, activity given as class A/B/C
[3] = CaMKIIδ binding assay, results of Table 2
[4] = Table 2, activity class for CaMKIIδ

T1 sequence (Q13557 1-478 isoform Q13557-12): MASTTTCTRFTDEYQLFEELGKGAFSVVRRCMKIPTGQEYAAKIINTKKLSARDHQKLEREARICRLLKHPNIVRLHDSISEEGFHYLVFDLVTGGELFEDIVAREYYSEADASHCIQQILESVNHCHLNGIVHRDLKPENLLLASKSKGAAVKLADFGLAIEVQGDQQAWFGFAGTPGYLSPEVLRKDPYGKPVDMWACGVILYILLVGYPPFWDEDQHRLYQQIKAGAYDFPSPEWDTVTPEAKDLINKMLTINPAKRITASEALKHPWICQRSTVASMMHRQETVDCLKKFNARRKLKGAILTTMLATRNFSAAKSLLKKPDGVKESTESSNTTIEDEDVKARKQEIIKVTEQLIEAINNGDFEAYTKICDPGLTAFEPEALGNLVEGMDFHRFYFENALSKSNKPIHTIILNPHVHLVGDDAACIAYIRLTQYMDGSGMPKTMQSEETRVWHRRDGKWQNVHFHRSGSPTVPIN

**Q.** For C[C@@H](Cn1cnnn1)Oc1cc(-c2cnc(Nc3cn(Cc4ccc(=O)[nH]c4)nc3OCC(F)(F)F)nc2)ccc1Cl [Example 927, (S)-5-((4-((5-(3-((1-(1H-tetrazol-1-yl)propan-2-yl)oxy)-4-chlorophenyl)pyrimidin-2-yl)amino)-3-(2,2,2-trifluoroethoxy)-1H-pyrazol-1-yl)methyl)pyridin-2(1H)-one], which IC50 [1] is on record?
**A.** < 10 nM

**Q.** How did the IC50 [2] turn out when C[C@@H](Cn1cnnn1)Oc1cc(-c2cnc(Nc3cn(CC(F)F)nc3OCC(F)(F)F)nc2)ccc1Cl [Example 760, (S)-5-(3-((1-(1H-tetrazol-1-yl)propan-2-yl)oxy)-4-chlorophenyl)-N-(1-(2,2-difluoroethyl)-3-(2,2,2-trifluoroethoxy)-1H-pyrazol-4-yl)pyrimidin-2-amine] was run?
**A.** < 10 nM

**Q.** For COc1cc2c(cc1Nc1ncc(-c3ccc(Cl)c(O[C@@H](C)Cn4cnnn4)c3)cn1)CCN(CC(=O)O)C2 [Example 506, (S)-2-(6-((5-(3-((1-(1H-tetrazol-1-yl)propan-2-yl)oxy)-4-chlorophenyl)pyrimidin-2-yl)amino)-7-methoxy-3,4-dihydroisoquinolin-2(1H)-yl)acetic acid], which IC50 [3] is on record?
**A.** < 10 nM

**Q.** Which IC50 [2] does the source give for C[C@@H](Cn1cnnn1)Oc1cc(-c2cnc(Nc3cn(C)nc3OCC(F)(F)F)nc2)ccc1Cl [Example 759, (S)-5-(3-((1-(1H-tetrazol-1-yl)propan-2-yl)oxy)-4-chlorophenyl)-N-(1-methyl-3-(2,2,2-trifluoroethoxy)-1H-pyrazol-4-yl)pyrimidin-2-amine] here?
**A.** < 10 nM

**Q.** Which IC50 [4] does the source give for CCn1cc(Nc2ncc(-c3ccc(Cl)c(O[C@@H](C)Cn4cnnn4)c3)cn2)c(OCC(F)(F)F)n1 [Example 700, (S)-5-(3-((1-(1H-tetrazol-1-yl)propan-2-yl)oxy)-4-chlorophenyl)-N-(1-ethyl-3-(2,2,2-trifluoroethoxy)-1H-pyrazol-4-yl)pyrimidin-2-amine] here?
**A.** < 10 nM

**Q.** Which IC50 [1] does the source give for C[C@H](Cn1cnnn1)Oc1cc(-c2cnc(Nc3cn([C@H]4CC[C@H](N5CCOCC5)CC4)nc3C(F)(F)F)nc2)ccc1Cl [Example 893, 5-(3-(((R)-1-(1H-tetrazol-1-yl)propan-2-yl)oxy)-4-chlorophenyl)-N-(1-(trans-4-morpholinocyclohexyl)-3-(trifluoromethyl)-1H-pyrazol-4-yl)pyrimidin-2-amine] here?
**A.** 10 to 100 nM

**Q.** Which IC50 [2] does the source give for CC(=O)NC(C)(C)Cn1cc(Nc2ncc(-c3ccc(Cl)c(O[C@@H](C)Cn4cnnn4)c3)cn2)c(C(F)(F)F)n1 [Example 862, (S)-N-(1-(4-((5-(3-((1-(1H-tetrazol-1-yl)propan-2-yl)oxy)-4-chlorophenyl)pyrimidin-2-yl)amino)-3-(trifluoromethyl)-1H-pyrazol-1-yl)-2-methylpropan-2-yl)acetamide] here?
**A.** 10 to 100 nM

**Q.** Which IC50 [3] does the source give for COc1cc2c(cc1Nc1ncc(-c3ccc(Cl)c(O[C@@H](C)Cn4cnnn4)c3)cn1)CN(CC(C)=O)CC2 [Example 510, (S)-1-(7-((5-(3-((1-(1H-tetrazol-1-yl)propan-2-yl)oxy)-4-chlorophenyl)pyrimidin-2-yl)amino)-6-methoxy-3,4-dihydroisoquinolin-2(1H)-yl)propan-2-one] here?
**A.** < 10 nM

**Q.** How did the IC50 [2] turn out when C[C@@H](Cn1cnnn1)Oc1cc(-c2cnc(Nc3cn([C@H]4CC[C@H](N5CCOCC5)CC4)nc3OCC(F)F)nc2)ccc1F [Example 835, 5-(3-(((S)-1-(1H-tetrazol-1-yl)propan-2-yl)oxy)-4-fluorophenyl)-N-(3-(2,2-difluoroethoxy)-1-(trans-4-morpholinocyclohexyl)-1H-pyrazol-4-yl)pyrimidin-2-amine] was run?
**A.** < 10 nM

**Q.** Which IC50 [3] does the source give for COc1cc(C2CCCN(C3COC3)C2)ccc1Nc1ncc(-c2ccc(Cl)c(O[C@@H](C)Cn3cnnn3)c2)cn1 (stereo partly drawn) [Example 494, 5-(3-(((S)-1-(1H-tetrazol-1-yl)propan-2-yl)oxy)-4-chlorophenyl)-N-(2-methoxy-4-(1-(oxetan-3-yl)piperidin-3-yl)phenyl)pyrimidin-2-amine] here?
**A.** < 10 nM

**Q.** How did the IC50 [3] turn out when CCc1cc2c(cc1Nc1ncc(-c3ccc(Cl)c(O[C@@H](C)Cn4cnnn4)c3)cn1)CN(C1COC1)CC2 [Example 515, (S)-N-(5-(3-((1-(1H-tetrazol-1-yl)propan-2-yl)oxy)-4-chlorophenyl)pyrimidin-2-yl)-6-ethyl-2-(oxetan-3-yl)-1,2,3,4-tetrahydroisoquinolin-7-amine] was run?
**A.** 10 to 100 nM

**Q.** For COc1cc2c(cc1Nc1ncc(-c3ccc(Cl)c(O[C@@H](C)Cn4cnnn4)c3)cn1)CN(C(=O)COC(C)=O)CC2 [Example 519, (S)-2-(7-((5-(3-((1-(1H-tetrazol-1-yl)propan-2-yl)oxy)-4-chlorophenyl)pyrimidin-2-yl)amino)-6-methoxy-3,4-dihydroisoquinolin-2(1H)-yl)-2-oxoethyl acetate], which IC50 [3] is on record?
**A.** 10 to 100 nM

**Q.** With COc1cc2c(cc1Nc1ncc(-c3ccc(Cl)c(O[C@@H](C)Cn4cnnn4)c3)cn1)CCN(C1CCOCC1)C2 [Example 474, (S)-N-(5-(3-((1-(1H-tetrazol-1-yl)propan-2-yl)oxy)-4-chlorophenyl)pyrimidin-2-yl)-7-methoxy-2-(tetrahydro-2H-pyran-4-yl)-1,2,3,4-tetrahydroisoquinolin-6-amine] as the compound, how does the IC50 [3] read?
**A.** < 10 nM

**Q.** How did the IC50 [4] turn out when C[C@@H](Cn1cnnn1)Oc1cc(-c2cnc(Nc3cn([C@@H]4Cc5ccccc5[C@@H]4O)nc3C(F)(F)F)nc2)ccc1Cl [Example 721, (1S,2R)-2-(4-((5-(3-(((S)-1-(1H-tetrazol-1-yl)propan-2-yl)oxy)-4-chlorophenyl)pyrimidin-2-yl)amino)-3-(trifluoromethyl)-1H-pyrazol-1-yl)-2,3-dihydro-1H-inden-1-ol] was run?
**A.** 10 to 100 nM

**Q.** For C[C@@H](Cn1cnnn1)Oc1cc(-c2cnc(Nc3cn([C@H]4CC[C@@H](N5CC(C)(O)C5)CC4)nc3C(F)(F)F)nc2)ccc1Cl [Example 803, 1-(cis-4-(4-((5-(3-(((S)-1-(1H-tetrazol-1-yl)propan-2-yl)oxy)-4-chlorophenyl)pyrimidin-2-yl)amino)-3-(trifluoromethyl)-1H-pyrazol-1-yl)cyclohexyl)-3-methylazetidin-3-ol], which IC50 [2] is on record?
**A.** < 10 nM

**Q.** How did the IC50 [2] turn out when C[C@@H](Cn1cnnn1)Oc1cc(-c2cnc(Nc3cn([C@H]4CC[C@H](N5CCC(F)(F)C5)CC4)nc3OC3COC3)nc2)ccc1Cl [Example 864, 5-(3-(((S)-1-(1H-tetrazol-1-yl)propan-2-yl)oxy)-4-chlorophenyl)-N-(1-(trans-4-(3,3-difluoropyrrolidin-1-yl)cyclohexyl)-3-(oxetan-3-yloxy)-1H-pyrazol-4-yl)pyrimidin-2-amine] was run?
**A.** < 10 nM

**Q.** COc1cc2cc[nH]c2cc1Nc1ncc(-c2ccc(Cl)c(O[C@@H](C)Cn3cnnn3)c2)cn1 [Example 496, (S)-N-(5-(3-((1-(1H-tetrazol-1-yl)propan-2-yl)oxy)-4-chlorophenyl)pyrimidin-2-yl)-5-methoxy-1H-indol-6-amine] was tested. Which IC50 [3] did it give?
**A.** 10 to 100 nM

**Q.** Which IC50 [1] does the source give for C[C@@H](Cn1cnnn1)Oc1cc(-c2cnc(Nc3cn(C4CC5(C4)CN(C4COC(C)(C)OC4)C5)nc3C(F)(F)F)nc2)ccc1Cl [Example 922, (S)-5-(3-((1-(1H-tetrazol-1-yl)propan-2-yl)oxy)-4-chlorophenyl)-N-(1-(2-(2,2-dimethyl-1,3-dioxan-5-yl)-2-azaspiro[3.3]heptan-6-yl)-3-(trifluoromethyl)-1H-pyrazol-4-yl)pyrimidin-2-amine] here?
**A.** < 10 nM

**Q.** C[C@@H](Cn1cnnn1)Oc1cc(-c2cnc(Nc3cn(CCOC(F)(F)F)nc3C(F)(F)F)nc2)ccc1Cl [Example 727, (S)-5-(3-((1-(1H-tetrazol-1-yl)propan-2-yl)oxy)-4-chlorophenyl)-N-(1-(2-(trifluoromethoxy)ethyl)-3-(trifluoromethyl)-1H-pyrazol-4-yl)pyrimidin-2-amine] was tested. Which IC50 [4] did it give?
**A.** 10 to 100 nM

**Q.** Which IC50 [4] does the source give for COc1nc(N2CCN(C(=O)OC(C)(C)C)CC2)ccc1Nc1ncc(-c2ccc(Cl)c(O[C@@H](C)Cn3cnnn3)c2)cn1 [Example 613, tert-butyl (S)-4-(5-((5-(3-((1-(1H-tetrazol-1-yl)propan-2-yl)oxy)-4-chlorophenyl)pyrimidin-2-yl)amino)-6-methoxypyridin-2-yl)piperazine-1-carboxylate] here?
**A.** ≥ 100 nM

**Q.** COc1ccc(N2CC(CN3CCOCC3)C2)cc1Nc1ncc(-c2ccc(Cl)c(O[C@@H](C)Cn3cnnn3)c2)cn1 [Example 656, (S)-5-(3-((1-(1H-tetrazol-1-yl)propan-2-yl)oxy)-4-chlorophenyl)-N-(2-methoxy-5-(3-(morpholinomethyl)azetidin-1-yl)phenyl)pyrimidin-2-amine] was tested. Which IC50 [4] did it give?
**A.** < 10 nM
